Assay results as given in patent US11845747B2, “Ester and carbonate pyrimidine compounds as JAK kinase inhibitors” (priority 2019, dated 2023).

Tests used:
JAK2 = target: T1, JAK2 (Homo sapiens, UniProt O60674); test: Biochemical LanthaScreen JAK2 kinase assay; settings: Km ATP 3 μM; pKi from pIC50 by Cheng-Prusoff; read-out: JAK 2 (pKi) (converted)
T1 construct: GST; purchased Life Technologies
Method: (§1) Assay 1: Biochemical JAK and Tyk2 Kinase Assays A panel of four LanthaScreen JAK biochemical assays (JAK1, 2, 3 and Tyk2) were carried in a common kinase reaction buffer (50 mM HEPES, pH 7.5, 0.01% Brij-35, 10 mM MgCl2, and 1 mM EGTA). Recombinant GST-tagged JAK enzymes and a GFP-tagged STAT1 peptide substrate were obtained from Life Technologies. Serially or discretely diluted compounds were pre-incubated with each of the four JAK enzymes and the substrate in white 384-well microplates (Corning) at ambient temperature for 1 h. ATP was subsequently added to initiate the kinase reactions in 10 μL total volume, with 1% DMSO. […] Kinase reactions were allowed to proceed for 1 hour at ambient temperature before a 10 μL preparation of EDTA (10 mM final concentration) and Tb-anti-pSTAT1 ([…]) antibody (Life Technologies, 2 nM final concentration) in TR-FRET dilution buffer (Life Technologies) was added. The plates were allowed to incubate at ambient temperature for 1 h before being read on the EnVision reader (Perkin Elmer). Emission ratio signals (520 nm/495 nm) were recorded and utilized to calculate the percent inhibition values based on DMSO and background controls. For dose-response analysis, percent inhibition data were plotted vs. compound concentrations, and IC50 values were determined from a 4-parameter robust fit model with the Prism software (GraphPad Software). Results were expressed as pIC50 (negative logarithm of IC50) and subsequently converted to pKi (negative logarithm of dissociation constant, Ki) using the Cheng-Prusoff equation.

Tyk2 = target: T2, Tyk2 (Homo sapiens, UniProt P29597); test: Biochemical LanthaScreen Tyk2 kinase assay; settings: Km ATP 10 μM; pKi from pIC50 by Cheng-Prusoff; read-out: Tyk 2 (pKi) (converted)
T2 construct: GST; purchased Life Technologies
T2 sequence (P29597 whole entry): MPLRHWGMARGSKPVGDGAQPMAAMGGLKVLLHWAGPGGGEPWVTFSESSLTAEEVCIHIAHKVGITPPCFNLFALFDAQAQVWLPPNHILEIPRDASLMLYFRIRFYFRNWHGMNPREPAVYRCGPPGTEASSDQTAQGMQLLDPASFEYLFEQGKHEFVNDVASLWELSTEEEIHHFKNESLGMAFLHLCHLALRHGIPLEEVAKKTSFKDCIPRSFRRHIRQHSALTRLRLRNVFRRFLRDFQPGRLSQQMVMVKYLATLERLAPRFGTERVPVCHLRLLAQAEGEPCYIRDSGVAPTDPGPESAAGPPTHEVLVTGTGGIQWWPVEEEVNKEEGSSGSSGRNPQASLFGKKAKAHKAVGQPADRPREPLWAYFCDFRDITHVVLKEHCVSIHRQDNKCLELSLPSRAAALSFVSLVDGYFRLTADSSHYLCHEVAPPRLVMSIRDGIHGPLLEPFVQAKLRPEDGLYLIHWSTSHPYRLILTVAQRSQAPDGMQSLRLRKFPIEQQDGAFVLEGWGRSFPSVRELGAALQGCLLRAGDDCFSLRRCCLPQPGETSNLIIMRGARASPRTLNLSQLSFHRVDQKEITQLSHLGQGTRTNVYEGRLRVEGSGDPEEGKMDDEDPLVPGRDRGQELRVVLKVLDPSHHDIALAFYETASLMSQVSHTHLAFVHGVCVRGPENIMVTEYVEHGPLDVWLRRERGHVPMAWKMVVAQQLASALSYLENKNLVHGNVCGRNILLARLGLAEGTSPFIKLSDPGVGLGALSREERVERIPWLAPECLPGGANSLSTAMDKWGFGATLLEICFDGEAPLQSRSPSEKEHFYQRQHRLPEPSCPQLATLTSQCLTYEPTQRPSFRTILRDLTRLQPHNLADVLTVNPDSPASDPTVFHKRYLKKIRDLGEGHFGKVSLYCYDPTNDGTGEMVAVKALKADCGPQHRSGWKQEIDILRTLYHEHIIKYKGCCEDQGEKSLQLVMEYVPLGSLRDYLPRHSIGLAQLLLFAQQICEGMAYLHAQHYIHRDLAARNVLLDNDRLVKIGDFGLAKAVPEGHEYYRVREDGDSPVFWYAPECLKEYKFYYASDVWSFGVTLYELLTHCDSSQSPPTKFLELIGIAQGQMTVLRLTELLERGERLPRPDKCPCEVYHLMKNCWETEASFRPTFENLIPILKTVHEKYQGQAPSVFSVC
Method: as §1

[1] = In vitro skin S9 metabolic stability assay (mouse); format: in vitro ADME; settings: mouse, s9, pH 7.4
Method: (§2) Assay 6: In Vitro Skin S9 Metabolic Stability Assay
(§3) The objective of this assay was to assess the metabolic stability of compounds in human and mouse skin S9 sub-fraction. Human and mouse skin S9 sub-fractions obtained from Bioreclamation-IVT (Baltimore, Md.) were thawed on ice and diluted into 0.1M potassium phosphate buffer pH 7.4 to yield final incubation protein concentrations of 1.0 mg/mL. Test compounds (10 mM) were diluted into phosphate buffer to yield final incubation concentrations of 0.2 μM and 2.0 μM. Incubations were conducted at 37° C. temperature following addition of 1 mM NADPH and test aliquots were taken at time points 0, 5, 10, 20, 30 and 45 minutes. Each aliquot was crashed into water with 3% formic acid and 1 μM internal standard. The resulting samples were injected onto an LC-MS/MS system for analysis.
(§4) For each incubation, the peak area of the analytes in each t0 aliquot was set to 100% and the peak areas from subsequent time point aliquots were converted to percentage of parent compound remaining relative to t0. The percentage of parent compound remaining at each time point was converted to natural log scale and plotted versus time in minutes to determine a disappearance half-life.

[2] = In vitro skin S9 metabolic stability assay (human); format: in vitro ADME; settings: human, s9, pH 7.4
Method: as §2, §3, §4

Caco-2 cell monolayers = test: Caco-2 permeation assay; format: in vitro ADME; settings: A to B, 5 μM compound, with Verapamil 25 μM, 120 minutes
Method: Assay 8: Caco-2 Permeation Assay The Caco-2 permeation assay was used as an indication of skin permeability. The assay measures the rate at which test compounds in solution permeate a cell monolayer (designed to mimic the tight junction of human small intestinal monolayers). CacoReady 24-well transwell plates were obtained from […], Calif.). The compounds were evaluated at a concentration of 5 μM from 10 mM DMSO stock solutions in duplicate (n=2). The passive permeability of the compounds tested was evaluated using Caco-2 cell monolayers along with Verapamil (25 μM) to inhibit P-gp transport proteins in the apical to basolateral (A-B) direction. The experiment was conducted in a 37° C., 5% CO2 incubator. Caco-2 culture media consisted of standard filtered DMEM, FCS 10%, L-Glutamine 1% and PenStrep 1%. Basal assay plate was prepared by adding 750 μL of transport buffer to A-B wells. A CacoReadyTM plate was prepared by removing the Caco-2 media from the apical wells and replacing with fresh transport media (200 μL repeated for a total of 3 washes). Blank media (200 μL) was then replaced with diluted compound for A-B wells. To begin the incubation, the basal plate was removed from the incubator and the apical section was added on top of it. […] The permeation coefficient (Kp, mean A to B+Verapamil […]) in cm/sec was calculated as dQ (flux)/(dt×Area×concentration).

T1 sequence (O60674 whole entry): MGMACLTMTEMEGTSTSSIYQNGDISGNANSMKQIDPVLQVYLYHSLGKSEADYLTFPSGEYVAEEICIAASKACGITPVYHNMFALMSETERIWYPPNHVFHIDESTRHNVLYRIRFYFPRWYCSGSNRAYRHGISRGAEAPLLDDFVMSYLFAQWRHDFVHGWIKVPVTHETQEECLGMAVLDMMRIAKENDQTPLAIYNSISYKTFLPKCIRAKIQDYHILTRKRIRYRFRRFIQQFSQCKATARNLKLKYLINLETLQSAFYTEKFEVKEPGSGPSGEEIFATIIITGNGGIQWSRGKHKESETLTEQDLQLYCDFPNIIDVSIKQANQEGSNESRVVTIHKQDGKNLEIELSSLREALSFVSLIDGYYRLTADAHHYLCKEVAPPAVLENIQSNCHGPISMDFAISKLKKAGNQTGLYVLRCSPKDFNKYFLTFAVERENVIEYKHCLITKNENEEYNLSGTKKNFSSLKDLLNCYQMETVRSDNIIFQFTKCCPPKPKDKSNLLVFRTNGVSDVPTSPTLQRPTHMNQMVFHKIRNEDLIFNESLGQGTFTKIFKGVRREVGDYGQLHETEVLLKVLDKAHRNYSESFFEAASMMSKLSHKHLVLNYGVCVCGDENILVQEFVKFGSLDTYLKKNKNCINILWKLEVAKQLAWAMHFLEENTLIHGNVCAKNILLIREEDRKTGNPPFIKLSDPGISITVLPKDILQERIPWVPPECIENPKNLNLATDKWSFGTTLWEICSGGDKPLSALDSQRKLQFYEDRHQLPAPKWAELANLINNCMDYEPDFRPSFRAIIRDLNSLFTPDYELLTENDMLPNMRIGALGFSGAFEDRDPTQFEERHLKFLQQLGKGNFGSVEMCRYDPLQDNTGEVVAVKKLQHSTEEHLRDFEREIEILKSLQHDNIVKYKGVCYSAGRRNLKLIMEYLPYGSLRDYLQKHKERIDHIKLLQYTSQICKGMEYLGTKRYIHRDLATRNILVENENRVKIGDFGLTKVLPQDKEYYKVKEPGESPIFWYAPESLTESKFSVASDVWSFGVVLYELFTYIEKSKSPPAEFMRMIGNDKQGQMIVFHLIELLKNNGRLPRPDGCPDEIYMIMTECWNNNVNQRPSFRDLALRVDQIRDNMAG

SMILES	Ki (JAK2)	Ki (Tyk2)	half-life at 0.2 μM [1]	half-life at 2 μM [1]	half-life at 0.2 μM [2]	half-life at 2 μM [2]	Cacoverap Kp (Caco-2 cell monolayers)
CCS(=O)(=O)N1[C@@H]2CCC[C@H]1C[C@H](N(C)c1nc(COC(=O)OC3CCOCC3)c(F)c(Nc3cc(C)[nH]n3)n1)C2 [Compound 9, (2-(((1R,3s,5S)-9-(ethylsulfonyl)-9-azabicyclo[3.3.1]nonan-3-yl)(methyl)amino)-5-fluoro-6-((5-methyl-1H-pyrazol-3-yl)amino)pyrimidin-4-yl)methyl (tetrahydro-2H-pyran-4-yl) carbonate]	≤ 0.1 nM	0.1 to 1 nM					
CCCC(=O)OCc1nc(N(C)[C@@H]2C[C@H]3CCC[C@@H](C2)N3S(=O)(=O)CC)nc(Nc2cc(C)[nH]n2)c1F [Compound 3, (2-(((1R,3s,5S)-9-(ethylsulfonyl)-9-azabicyclo[3.3.1]nonan-3-yl)(methyl)amino)-5-fluoro-6-((5-methyl-1H-pyrazol-3-yl)amino)pyrimidin-4-yl)methyl butyrate]			< 15 min	< 15 min	> 30 min	> 30 min	
CCS(=O)(=O)N1[C@@H]2CCC[C@H]1C[C@H](N(C)c1nc(COC(=O)OC3CCCCC3)c(F)c(Nc3cc(C)[nH]n3)n1)C2 [Compound 6, cyclohexyl ((2-(((1R,3s,5S)-9-(ethylsulfonyl)-9-azabicyclo[3.3.1]nonan-3-yl)(methyl)amino)-5-fluoro-6-((5-methyl-1H-pyrazol-3-yl)amino)pyrimidin-4-yl)methyl) carbonate]	0.1 to 1 nM	1 to 10 nM	< 15 min	< 15 min	> 30 min	> 30 min	
CCS(=O)(=O)N1[C@@H]2CCC[C@H]1C[C@H](N(C)c1nc(CO)c(F)c(Nc3cc(C)[nH]n3)n1)C2 [Compound M, (2-(((1R,3s,5S)-9-(ethylsulfonyl)-9-azabicyclo[3.3.1]nonan-3-yl)(methyl)amino)-5-fluoro-6-((5-methyl-1H-pyrazol-3-yl)amino)pyrimidin-4-yl)methanol]	≤ 0.1 nM	0.1 to 1 nM					42.3 ×10⁻⁶ cm/s
CCS(=O)(=O)N1[C@@H]2CCC[C@H]1C[C@H](N(C)c1nc(COC(C)=O)c(F)c(Nc3cc(C)[nH]n3)n1)C2 [Compound 1, (2-(((1R,3s,5S)-9-(ethylsulfonyl)-9-azabicyclo[3.3.1]nonan-3-yl)(methyl)amino)-5-fluoro-6-((5-methyl-1H-pyrazol-3-yl)amino)pyrimidin-4-yl)methyl acetate]	≤ 0.1 nM	≤ 0.1 nM	< 15 min	15 to 30 min	> 30 min	> 30 min	
CCS(=O)(=O)N1[C@@H]2CCC[C@H]1C[C@H](N(C)c1nc(COC(=O)C3CCOCC3)c(F)c(Nc3cc(C)[nH]n3)n1)C2 [Compound 7, (2-(((1R,3s,5S)-9-(ethylsulfonyl)-9-azabicyclo[3.3.1]nonan-3-yl)(methyl)amino)-5-fluoro-6-((5-methyl-1H-pyrazol-3-yl)amino)pyrimidin-4-yl)methyl tetrahydro-2H-pyran-4-carboxylate]	≤ 0.1 nM	≤ 0.1 nM					
CCCCC(=O)OCc1nc(N(C)[C@@H]2C[C@H]3CCC[C@@H](C2)N3S(=O)(=O)CC)nc(Nc2cc(C)[nH]n2)c1F [Compound 4, (2-(((1R,3s,5S)-9-(ethylsulfonyl)-9-azabicyclo[3.3.1]nonan-3-yl)(methyl)amino)-5-fluoro-6-((5-methyl-1H-pyrazol-3-yl)amino)pyrimidin-4-yl)methyl pentanoate]			< 15 min	< 15 min	15 to 30 min	> 30 min	
CCC(=O)OCc1nc(N(C)[C@@H]2C[C@H]3CCC[C@@H](C2)N3S(=O)(=O)CC)nc(Nc2cc(C)[nH]n2)c1F [Compound 2, (2-(((1R,3s,5S)-9-(ethylsulfonyl)-9-azabicyclo[3.3.1]nonan-3-yl)(methyl)amino)-5-fluoro-6-((5-methyl-1H-pyrazol-3-yl)amino)pyrimidin-4-yl)methyl propionate]			15 to 30 min	15 to 30 min	> 30 min	> 30 min	
